# In patent US20240109893A1, “PREPARATION AND APPLICATION METHOD OF HETEROCYCLIC COMPOUNDS AS KRAS INHIBITOR” (SHANGHAI KECHOW PHARMA, INC., priority 2020, published 2024):
# pIC50: −log10 of the molar value.
# Tests used:
# H358 cells = test: Cell activity experiment: activity test of H358 cells (MTT, 5 days); format: cell-based; conditions: 5 days incubation, absorbance 492 nm
# Method in brief: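 H358 cells seeded 90 μL at 55555 cells/mL, grown 24 h, then exposed to 3-fold serial compound dilutions (final top 10000 nM, 0.5% DMSO) in triplicate for 5 days at 37° C., 5% CO2. Viability by MTT (4 h), formazan dissolved in DMSO, absorbance at 492 nm.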
# KRAS G12C-GDP = KRAS G12C-GDP (Homo sapiens (Human), UniProt P01116, G12C); test: KRAS G12C-GDP exchange test (SOS/cRAF/GTP, HTRF); format: biochemical; conditions: 1 h premix with compound, 2 h reaction with SOS, cRAF, GTP
# Experimental: 2. A mixture of SOS (Pharmaron, ZZY-20190823), cRAF (Pharmaron, ZZY-20190823), GTP (Sigma, A6885-100MG), MAb Anti 6HIS-d2/MAb Anti GST-Eu (Cisbio, 61HISDLB/61GSTKLB) was added for a catalyzed reaction for 2 h.
# 3. The fluorescence signals of the emitted light at 615 nm and 665 nm under 320 nm excitation light were read by Biotek Microplate Reader (Synergy4).
# 4. The IC50 (median inhibitory concentration) of the compound was obtained by the following non-linear fitting formula: Y=Bottom+(Top−Bottom)/(1+10^((Log IC50−X)*Hill Slope)), and the data were analyzed by Graphpad 6-0 software.
# [1] = Pharmacokinetic experiment in SD rats; format: in vivo; conditions: male, Sprague-Dawley, rat, plasma, po, 10 mg/kg; read-out: Oral bioavailability, F %
# Experimental: Pharmacokinetic Experiment in SD Rats:
# 1. SPF male rats were randomly divided into groups. The compounds to be tested were separately administered by intravenous injection and oral gavage, with 3 animals for each compound to be tested in each mode of administration. The administration solvent was 5% DMSO+10% Solutol+85% normal saline or 85% PBS, and the substances to be tested were dissolved in the solvent to obtain clear solutions. Administration concentration and volume: 1) a single intravenous injection of 0.6 mg/mL of the compound to be tested, with an administration volume of 5 mL/kg and an administration dosage of 3 mg/kg; and 2) a single oral gavage of 1 mg/mL of the compound to be tested, with an administration volume of 10 mL/kg and an administration dosage of 10 mg/kg. The rats were fasted overnight (10-14 h) before administration and fed 4 h after administration.
# 2. Blood was collected via the jugular vein or by other appropriate methods at 200 μL per time point and anticoagulated with K2-EDTA, and after collection, the blood was placed on ice and centrifuged for plasma within 1 h (centrifugation conditions: 6800 g, 6 min 2-8° C.). The points for blood sampling from the animals in the intravenous injection group were respectively: before administration, and 5 min, 15 min, 30 min, 1 h, 2 h, 4 h, 8 h, and 24 h after administration; and the points for blood sampling from the animals in the oral administration group were respectively: before administration, and 15 min, 30 min, 1 h, 2 h, 4 h, 6 h, 8 h, and 24 h after administration.
# 3. The blood concentration was detected, and the pharmacokinetic parameter AUC(0-t) was calculated by Phoenix WinNonlin based on the blood concentration data at various time points. When the pharmacokinetic parameters were calculated, the BLQ before Cmax (including ‘No peak’) was calculated as 0: and BLQ after Cmax (including ‘No peak’) was not involved in the calculation.
# Sequence of KRAS G12C-GDP (P01116-2 other isoform, or with tags, fused parts or gaps G12C): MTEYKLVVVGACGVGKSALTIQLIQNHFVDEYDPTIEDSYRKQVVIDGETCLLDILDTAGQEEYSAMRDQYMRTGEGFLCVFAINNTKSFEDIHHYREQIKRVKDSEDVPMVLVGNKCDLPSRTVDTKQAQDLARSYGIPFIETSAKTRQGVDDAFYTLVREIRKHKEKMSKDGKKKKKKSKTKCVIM
SMILES,pIC50 (H358 cells),pIC50 (KRAS G12C-GDP),bioavailability [1] [%],"pIC50 (H358 cells; Homo sapiens, NCI-H358, 120 h)"
"C=CC(=O)N1CCN(c2nc(OC[C@@H]3CCCN3C)nc3nc(-c4cccc5c4CCCC5)ccc23)C[C@@H]1CC#N [Example 286, 2-((S)-1-acryloyl-4-(2-(((S)-1-methylpyrrolidin-2-yl)methoxy)-7-(5,6,7,8-tetrahydronaphthalen-1-yl)pyridino[2,3-d]pyrimidin-4-yl)piperazin-2-yl)acetonitrile]",6.45,8.00,–,–
"C=CC(=O)N1CCN(c2nc(OC[C@@H]3CCCN3C)nc3c(F)c(-c4cccc5cccc(Cl)c45)ccc23)C[C@@H]1CC#N [Example 358, 2-((S)-1-acryloyl-4-(7-(8-chloronaphthalen-1-yl)-8-fluoro-2-(((S)-1-methylpyrrolidin-2-yl)methoxy)quinazolin-4-yl)piperazin-2-yl)acetonitrile]",–,8.62,2.35,8.47
"C=CC(=O)N1CCN(c2nc(OC[C@@H]3CCCN3C)nc3cc(-c4cccc5ccc(F)c(Cl)c45)cnc23)C[C@@H]1CC#N [Example 840, 2-((S)-1-acryloyl-4-(7-(8-chloro-7-fluoronaphthalen-1-yl)-2-(((S)-1-methylpyrrolidin-2-yl)methoxy)pyridino[3,2-d]pyrimidin-4-yl)piperazin-2-yl)acetonitrile]",–,8.34,–,6.09
"C=CC(=O)N1CCN(c2nc(OCC3(CN4CCCC4)CC3)nc3c(F)c(-c4cccc5cccc(Cl)c45)ncc23)C[C@@H]1CC#N [Example 854, (S)-2-(1-acryloyl-4-(7-(8-chloronaphthalen-1-yl)-8-fluoro-2-((1-(pyrrolidin-1-ylmethyl)cyclopropyl)methoxy)pyridino[4,3-d]pyrimidin-4-yl)piperazin-2-yl)acetonitrile]",–,9.23,–,8.36
C=C(F)C(=O)N1CCN(c2nc(OC[C@@H]3CCCN3C)nc3c(F)c(-c4cccc5cccc(Cl)c45)ccc23)C[C@@H]1CC#N [Example 903],–,9.05,28.6,9.15
"C=C(F)C(=O)N1CCN(c2nc(OC[C@@]34CCCN3C[C@H](F)C4)nc3c(F)c(-c4cccc5ccc(F)c(Cl)c45)ccc23)C[C@@H]1CC#N [Example 914, 2-((S)-4-(7-(8-chloro-7-fluoronaphthalen-1-yl)-8-fluoro-2-((2R,7aS)-2-fluorotetrahydro-1H-pyrrolizin-7a(5H)-ylmethoxy)quinazolin-4-yl)-1-(2-fluoroacryloyl)piperazin-2-yl)acetonitrile]",–,–,28.5,9.40

# Next, values leading:
pIC50 (H358 cells),pIC50 (KRAS G12C-GDP),bioavailability [1] [%],"pIC50 (H358 cells; Homo sapiens, NCI-H358, 120 h)",SMILES
8.40,9.23,16.9,–,"C=C(F)C(=O)N1CCN(c2nc(OC[C@@]34CCCN3C[C@H](F)C4)nc3c(F)c(-c4cccc5c4CC4CC54)ncc23)C[C@@H]1CC#N (single isomer, unassigned) [Example 879]"
8.58,8.99,25.9,–,"C=C(F)C(=O)N1CCN(c2nc(OC[C@@]34CCCN3C[C@H](F)C4)nc3c(F)c(-c4cccc5c4CC4CC54)ccc23)C[C@@H]1CC#N (single isomer, unassigned) [Example 887]"
–,–,11.6,8.82,"C=CC(=O)N1CCN(c2nc(OC[C@@]34CCCN3C[C@H](F)C4)nc3c(F)c(-c4cccc5cccc(Cl)c45)ccc23)C[C@@H]1CC#N [Example 367, 2-((2S)-1-acryloyl-4-(7-(8-chloronaphthalen-1-yl)-8-fluoro-2-((((2R,7aS)-2-fluorotetrahydro-1H-pyrrolizin-7a(5H))-yl)methoxy)quinazolin-4-yl)piperazin-2-yl)acetonitrile]"
–,8.65,–,7.15,"C=CC(=O)N1CCN(c2nc(OC[C@@H]3CCCN3C)nc3cc(-c4cccc5cccc(Cl)c45)c(Cl)cc23)C[C@@H]1CC#N [Example 465, 2-((S)-1-acryloyl-4-(6-chloro-7-(8-chloronaphthalen-1-yl)-2-(((S)-1-methylpyrrolidin-2-yl)methoxy)quinazolin-4-yl)piperazin-2-yl)acetonitrile]"
–,9.03,30.3,9.40,"C=C(F)C(=O)N1CCN(c2nc(OC[C@@]34CCCN3C[C@H](F)C4)nc3c(F)c(-c4cccc5cccc(Cl)c45)ccc23)C[C@@H]1CC#N [Example 904, 2-((S)-4-(7-(8-chloronaphthalen-1-yl)-8-fluoro-2-((2R,7aS)-2-fluorotetrahydro-1H-pyrrolizin-7a(5H)-methoxy)quinazolin-4-yl)-1-(2-fluoroacryloyl)piperazin-2-yl)acetonitrile]"
